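GI50: concentration for 50% inhibition of growth. At the TGI there is no net growth.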
Legend:
Assay in all cases: NCI tumour cell line growth inhibition, 384-well format
HOP-62 NSCLC = system: HOP-62 NSCLC
NCI-H322M lung = system: NCI-H322M lung
SNB-19 CNS = system: SNB-19 CNS
SF-295 CNS = system: SF-295 CNS
ACHN renal = system: ACHN renal
MOLT-4 leukemia = system: MOLT-4 leukemia
IGROV1 ovarian = system: IGROV1 ovarian
SNB-75 CNS = system: SNB-75 CNS
SK-MEL-28 melanoma = system: SK-MEL-28 melanoma
NCI/ADR-RES ovarian = system: NCI/ADR-RES ovarian
MCF7 breast = system: MCF7 breast
HL-60(TB) leukemia = system: HL-60(TB) leukemia
SF-268 CNS = system: SF-268 CNS
PC-3 prostate = system: PC-3 prostate
HT29 colon = system: HT29 colon
EKVX NSCLC = system: EKVX NSCLC
HOP-92 NSCLC = system: HOP-92 NSCLC
SK-OV-3 ovarian = system: SK-OV-3 ovarian
DU-145 prostate = system: DU-145 prostate
MDA-MB-468 breast = system: MDA-MB-468 breast
NCI-H460 NSCLC = system: NCI-H460 NSCLC
OVCAR-5 ovarian = system: OVCAR-5 ovarian
KM12 colon = system: KM12 colon
SK-MEL-5 melanoma = system: SK-MEL-5 melanoma
HCC-2998 colon = system: HCC-2998 colon
TK-10 renal = system: TK-10 renal
T-47D breast = system: T-47D breast
SF-539 CNS = system: SF-539 CNS
NCI-H226 lung = system: NCI-H226 lung
RXF 393 renal = system: RXF 393 renal
OVCAR-8 ovarian = system: OVCAR-8 ovarian
A498 renal = system: A498 renal
NCI-H23 lung = system: NCI-H23 lung
MALME-3M melanoma = system: MALME-3M melanoma
MDA-MB-435 melanoma = system: MDA-MB-435 melanoma
U251 glioblastoma = system: U251 glioblastoma
SR leukemia = system: SR leukemia
LOX IMVI melanoma = system: LOX IMVI melanoma
HS 578T breast = system: HS 578T breast
M14 melanoma = system: M14 melanoma
OVCAR-4 ovarian = system: OVCAR-4 ovarian
HCT-116 colon = system: HCT-116 colon
COLO 205 colon = system: COLO 205 colon
BT-549 breast = system: BT-549 breast
MDA-MB-231 breast = system: MDA-MB-231 breast
CAKI-1 renal = system: CAKI-1 renal
RPMI-8226 leukemia = system: RPMI-8226 leukemia
SN12C renal = system: SN12C renal
HCT-15 colon = system: HCT-15 colon
NCI-H522 lung = system: NCI-H522 lung
A549 NSCLC = system: A549 NSCLC
OVCAR-3 ovarian = system: OVCAR-3 ovarian
UACC-257 melanoma = system: UACC-257 melanoma
UO-31 renal = system: UO-31 renal
786-0 renal = system: 786-0 renal
K-562 leukemia = system: K-562 leukemia

O=C(/C=C/c1cccnc1)NCCCCC1CCN(C(=O)c2ccccc2)CC1
GI50 (HOP-62 NSCLC): < 10 nM
TGI (HOP-62 NSCLC): < 10 nM
GI50 (NCI-H322M lung): < 10 nM
TGI (NCI-H322M lung): < 10 nM
GI50 (SNB-19 CNS): < 10 nM
TGI (SNB-19 CNS): < 10 nM
GI50 (SF-295 CNS): < 10 nM
TGI (SF-295 CNS): < 10 nM
GI50 (ACHN renal): < 10 nM
TGI (ACHN renal): < 10 nM
GI50 (MOLT-4 leukemia): < 10 nM
TGI (MOLT-4 leukemia): < 10 nM
GI50 (IGROV1 ovarian): < 10 nM
TGI (IGROV1 ovarian): < 10 nM
GI50 (SNB-75 CNS): < 10 nM
TGI (SNB-75 CNS): < 10 nM
GI50 (SK-MEL-28 melanoma): < 10 nM
TGI (SK-MEL-28 melanoma): < 10 nM
GI50 (NCI/ADR-RES ovarian): < 10 nM
TGI (NCI/ADR-RES ovarian): < 10 nM
GI50 (MCF7 breast): < 10 nM
TGI (MCF7 breast): < 10 nM
GI50 (HL-60(TB) leukemia): < 10 nM
TGI (HL-60(TB) leukemia): < 10 nM
GI50 (SF-268 CNS): < 10 nM
TGI (SF-268 CNS): < 10 nM
GI50 (PC-3 prostate): < 10 nM
TGI (PC-3 prostate): < 10 nM
GI50 (HT29 colon): < 10 nM
TGI (HT29 colon): < 10 nM
GI50 (EKVX NSCLC): < 10 nM
TGI (EKVX NSCLC): < 10 nM
GI50 (HOP-92 NSCLC): < 10 nM
TGI (HOP-92 NSCLC): 24 nM
GI50 (SK-OV-3 ovarian): < 10 nM
TGI (SK-OV-3 ovarian): < 10 nM
GI50 (DU-145 prostate): < 10 nM
TGI (DU-145 prostate): < 10 nM
GI50 (MDA-MB-468 breast): < 10 nM
TGI (MDA-MB-468 breast): < 10 nM
GI50 (NCI-H460 NSCLC): < 10 nM
TGI (NCI-H460 NSCLC): 11.7 nM
GI50 (OVCAR-5 ovarian): < 10 nM
TGI (OVCAR-5 ovarian): < 10 nM
GI50 (KM12 colon): < 10 nM
TGI (KM12 colon): < 10 nM
GI50 (SK-MEL-5 melanoma): < 10 nM
TGI (SK-MEL-5 melanoma): < 10 nM
GI50 (HCC-2998 colon): < 10 nM
TGI (HCC-2998 colon): < 10 nM
GI50 (TK-10 renal): < 10 nM
TGI (TK-10 renal): < 10 nM
GI50 (T-47D breast): < 10 nM
TGI (T-47D breast): < 10 nM
GI50 (SF-539 CNS): < 10 nM
TGI (SF-539 CNS): < 10 nM
GI50 (NCI-H226 lung): 60.2 nM
TGI (NCI-H226 lung): > 100000 nM
GI50 (RXF 393 renal): < 10 nM
TGI (RXF 393 renal): < 10 nM
GI50 (OVCAR-8 ovarian): < 10 nM
TGI (OVCAR-8 ovarian): < 10 nM
GI50 (A498 renal): 16.9 nM
TGI (A498 renal): 67.9 nM
GI50 (NCI-H23 lung): < 10 nM
TGI (NCI-H23 lung): < 10 nM
GI50 (MALME-3M melanoma): < 10 nM
TGI (MALME-3M melanoma): 13.9 nM
GI50 (MDA-MB-435 melanoma): < 10 nM
TGI (MDA-MB-435 melanoma): < 10 nM
GI50 (U251 glioblastoma): < 10 nM
TGI (U251 glioblastoma): < 10 nM
GI50 (SR leukemia): < 10 nM
TGI (SR leukemia): < 10 nM
GI50 (LOX IMVI melanoma): < 10 nM
TGI (LOX IMVI melanoma): < 10 nM
GI50 (HS 578T breast): < 10 nM
TGI (HS 578T breast): < 10 nM
GI50 (M14 melanoma): < 10 nM
TGI (M14 melanoma): < 10 nM
GI50 (OVCAR-4 ovarian): < 10 nM
TGI (OVCAR-4 ovarian): < 10 nM
GI50 (HCT-116 colon): < 10 nM
TGI (HCT-116 colon): < 10 nM
GI50 (COLO 205 colon): < 10 nM
TGI (COLO 205 colon): < 10 nM
GI50 (BT-549 breast): < 10 nM
TGI (BT-549 breast): < 10 nM
GI50 (MDA-MB-231 breast): < 10 nM
TGI (MDA-MB-231 breast): < 10 nM
GI50 (CAKI-1 renal): < 10 nM
TGI (CAKI-1 renal): < 10 nM
GI50 (RPMI-8226 leukemia): < 10 nM
TGI (RPMI-8226 leukemia): < 10 nM
GI50 (SN12C renal): < 10 nM
TGI (SN12C renal): < 10 nM
GI50 (HCT-15 colon): < 10 nM
TGI (HCT-15 colon): < 10 nM
GI50 (NCI-H522 lung): < 10 nM
TGI (NCI-H522 lung): < 10 nM
GI50 (A549 NSCLC): < 10 nM
TGI (A549 NSCLC): 10.8 nM
GI50 (OVCAR-3 ovarian): < 10 nM
TGI (OVCAR-3 ovarian): < 10 nM

Cc1c(C#N)cccc1-c1cc(-c2cn(Cc3cccc(C(C)(C)O)n3)nn2)nc(N)n1
GI50 (SF-295 CNS): 25600 nM
TGI (SF-295 CNS): 95800 nM
GI50 (SNB-75 CNS): 53200 nM
TGI (SNB-75 CNS): > 100000 nM
GI50 (NCI/ADR-RES ovarian): 17500 nM
TGI (NCI/ADR-RES ovarian): 44500 nM
GI50 (PC-3 prostate): 29900 nM
TGI (PC-3 prostate): > 100000 nM
GI50 (HT29 colon): 41100 nM
TGI (HT29 colon): > 100000 nM
GI50 (EKVX NSCLC): 32100 nM
TGI (EKVX NSCLC): > 100000 nM
GI50 (UACC-257 melanoma): 25700 nM
TGI (UACC-257 melanoma): 79000 nM
GI50 (SK-OV-3 ovarian): 33800 nM
TGI (SK-OV-3 ovarian): > 100000 nM
GI50 (MDA-MB-468 breast): 368 nM
TGI (MDA-MB-468 breast): 28700 nM
GI50 (KM12 colon): 334 nM
TGI (KM12 colon): > 100000 nM
GI50 (TK-10 renal): 24000 nM
TGI (TK-10 renal): 96300 nM
GI50 (T-47D breast): 15200 nM
TGI (T-47D breast): 50900 nM
GI50 (UO-31 renal): 19000 nM
TGI (UO-31 renal): 62500 nM
GI50 (MALME-3M melanoma): 25200 nM
TGI (MALME-3M melanoma): 96400 nM
GI50 (MDA-MB-435 melanoma): 36000 nM
TGI (MDA-MB-435 melanoma): > 100000 nM
GI50 (M14 melanoma): 57800 nM
TGI (M14 melanoma): > 100000 nM
GI50 (MDA-MB-231 breast): 30500 nM
TGI (MDA-MB-231 breast): > 100000 nM
GI50 (RPMI-8226 leukemia): 14900 nM
TGI (RPMI-8226 leukemia): 31500 nM
GI50 (NCI-H522 lung): 18300 nM
TGI (NCI-H522 lung): 62400 nM
GI50 ([…]-0 renal): 38200 nM
TGI (786-0 renal): > 100000 nM
GI50 (K-562 leukemia): 25300 nM
TGI (K-562 leukemia): > 100000 nM

From PubChem BioAssay (NCI)
